Source: patent publication US20200069592A1, “HSP90 INHIBITOR ORAL FORMULATIONS AND RELATED METHODS” (Samus Therapeutics, Inc., priority 2017, published 2020)
Where two headings read alike, the source gives them in different places. Marks after values point to notes of the source that are not given here.

What was measured:
[1] = test system: MDA-MB-468 triple negative breast tumor xenograft; assay: MDA-MB-468 triple negative breast tumor xenograft model, tumor volume (IP vs PO); type: in vivo, Nu/Nu (athymic nude) female mice; conditions: for Mean tumor volume as % of mean tumor volume in control mice receiving vehicle alone / Mean tumor volume as % of mean tumor volume in mice receiving 75 mg/kg orally or intraperitoneally: Day 89; for Mean tumor volume on Day 117 relative to the same mice at Day 1: treatment stopped Day 103
Description: Mice were identified with a transponder.
To form the xenografts, 1×10^7 MDA-MB-468 cells suspended in 0.1 ml of 50% Matrigel/50% Media (1:1) were injected into the mammary fat pad of each mouse. Treatment was initiated when the mean tumor size reached 100-150 mm^3 and the day of treatment initiation was designated as Day 1. Subcutaneous tumor size was calculated as tumor volume (mm^3)=(a×b^2/2), where ‘b’ is the smallest diameter and ‘a’ is the largest diameter.
Oral gavage was used for oral administration.

[2] = Plasma pharmacokinetics after single oral dose in ORA-Plus or SyrSpend SF (Example 6), LC-MS/MS; type: in vivo, Sprague Dawley rats; conditions: for % AUC0-last test vs reference: rats, ratio of group averages; for AUC(0-t) / Cmax / Tmax / AUC(0-inf) / half-life: female, Sprague Dawley, rat, plasma, po
[3] = Solubility / compatibility testing in drinking solution vehicles and ingredients (Example 7); type: physicochemical
From the text: This Example examined drinking solution vehicles for Compound 1 2HCl. Initially Orasweet® Sugar Free options were explored as a vehicle for Compound 1 2HCl.
ORA-Sweet®, commerically available from Perrigo, comprises purified water, sucrose, glycerine, sorbitol, and flavouring. ORA-Sweet® is buffered with citric acid and sodium phosphate and preserved with methylparaben and potassium sorbate.
ORA-Sweet® Sugar Free, commerically available from Perrigo, comprises purified water, glycerine, sorbitol, sodium saccharin, xanthan gum, and flavouring. It is buffered with citric acid and sodium citrate and preserved with methylparaben (0.03%), potassium sorbate (0.1%), and propylparaben (0.008%).
SyrSpend® SF Cherry, commercially available from Fargon, comprises purified water, modified food starch, sodium citrate, citric acid, sucralose, sodium benzoate (<0.1% preservative), sorbic acid, malic acid and simethicone.
SyrSpend® SF Alka, commercially available from Fargon, comprises modified starch, calcium carbonate and sucralose.
ORA-Blend®, commerically available from Perrigo, comprises purified water, sucrose, glycerin, sorbitol, flavoring, microcrystalline cellulose, carboxymethylcellulose sodium, xanthan gum, carrageenan, calcium sulfate, trisodium phosphate, citric acid and sodium phosphate as buffers, dimethicone antifoam emulsion and preserved with methylparaben and potassium sorbate.
ORA-Plus®, commerically available from Perrigo, comprises purified water, microcrystalline cellulose, carboxymethylcellulose sodium, xanthan gum, carrageenan, calcium sulfate, trisodium phosphate, citric acid and sodium phosphate as buffers, dimethicone antifoam emulsion and preserved with methylparaben and potassium sorbate.

[4] = Tolerability (body weight, toxicity, maximum tolerated dose) in the Example 5 rat study; type: in vivo; conditions: female, Sprague Dawley, rat, in vivo, iv
Description: Ninety-four total animals were observed thereafter. The parenteral administration is performed by tail vein injection.

[5] = in vivo; conditions: female, Nu/Nu (NU-Foxn1^nu) athymic nude, mouse, ip
From the text: The animals used in this study were Nu/Nu (NU-Foxn1^nu) (athymic nude) physiologically normal female mice supplied by Charles River. At the time of inoculation, the age of the animals was 5-8 weeks. Sixty total animals were used and animals were not replaced during the course of this study. Mice were identified with a transponder. The animals were housed in individually ventilated microisolator cages and allowed to acclimate for at least 5-7 days. The animals were maintained under pathogen-free conditions and given Teklad Global Diet® 2920x irradiated pellets for food and autoclaved water ad libitum.
Compound ldihydrochloride (2HCl) was provided as a crystalline powder and stored at 2-8° C. protected from light. The administered form of Compound 1 2HCl was a clear solution. For intraperitoneal administration, Compound 1 2HCl was reconstituted in PBS. For oral administration, Compound 1 2HCl was reconstituted in 0.5% Methylcellulose (MC) in water. The salt: base ratio was 1.14:1 (i.e., to obtain 100 mg of Compound 1 free base, 114 mg of Compound 1 dihydrochloride salt was weighed out). Dose levels of Compound 1 were based on the free base, not the salt. Compound 1 2HCl in administered form was prepared fresh immediately prior to use.
Animals were randomized using random equilibration of tumor volume into one of six study groups, as shown in Table 22 (Groups 1-6), with 10 animals in each group.
Group 1 was administered vehicle control alone (without Compound 1 2HCl) intraperitoneally (IP) three times weekly (TIW) until the end of the study. PBS was used as the vehicle control and was administered at a volume of 10 mL/kg.
Groups 2-6 were administered Compound 1 2HCl at a volume of 10 mL/kg three times weekly (TIW) until the end of the study with the doses as described next.
Group 2 received 75 mg/kg Compound 1 2HCl via intraperitoneal administration.
Group 3 received 75 mg/kg Compound 1 2HCl via oral administration (PO). Group 4 received 100 mg/kg Compound 1 2HCl via oral administration. Group 5 received 125 mg/kg Compound 1 2HCl via oral administration. Group 6 received 150 mg/kg Compound 1 2HCl via oral administration. […]
Tumor volume and body weight were measured twice weekly with gross observations daily. […]
For data analysis, simple statistics (ANOVA) will be conducted on tumor volumes to verify significance of treatment groups relative to control. Growth curves will be constructed and percent tumor growth inhibition (TGI) will be calculated as a means to assess the effect of the single-agent therapy regimens. […]
The Materials and Methods used were the same as discussed above for Example 3, except for the lengths of treatment for Groups 1-4. […] Tumor growth and body weight were measured twice weekly with gross observations daily for Groups 1-5 until Day 117.

[6] = G5: 2HCl, 24 mg/kg single oral dose, ORA-plus, rat plasma, n = 4
[7] = G6: 2HCl, 48 mg/kg single oral dose, ORA-plus, rat plasma
[8] = G12: 2HCl, 24 mg/kg single oral dose, SyrSpend, rat plasma, n = 1
[9] = G13: 2HCl, 48 mg/kg single oral dose, SyrSpend, n = 2
[10] = G14: 2HCl, 60 mg/kg single oral dose, SyrSpend, n = 3
[11] = 24 mg/kg, G5: 2HCl, 24 mg/kg single oral dose, ORA-plus, rat plasma
[12] = 24 mg/kg, G5: 2HCl, 24 mg/kg single oral dose, ORA-plus, rat plasma, n = 4
[13] = 24 mg/kg, G12: 2HCl, 24 mg/kg single oral dose, SyrSpend, rat plasma
[14] = 24 mg/kg, G12: 2HCl, 24 mg/kg single oral dose, SyrSpend, rat plasma, n = 1
[15] = 48 mg/kg, G6: 2HCl, 48 mg/kg single oral dose, ORA-plus, rat plasma
[16] = 48 mg/kg, G13: 2HCl, 48 mg/kg single oral dose, SyrSpend
[17] = 48 mg/kg, G13: 2HCl, 48 mg/kg single oral dose, SyrSpend, n = 2
[18] = 60 mg/kg, G14: 2HCl, 60 mg/kg single oral dose, SyrSpend
[19] = 60 mg/kg, G14: 2HCl, 60 mg/kg single oral dose, SyrSpend, n = 3

With `CC(C)NCCCn1c(Sc2cc3c(cc2I)OCO3)nc2c(N)ncnc21` [Compound 1 2HCl] the “Effect on tumor growth (tumor volume)” value ([1]; 75 mg/kg IP, TIW, Day 36) was “tumor inhibition was observed”, the “Mean tumor volume as % of mean tumor volume in control mice receiving vehicle alone” value ([1]; 75 mg/kg IP, TIW) was “about 20%” and the “Mean tumor volume on Day 117 relative to the same mice at Day 1” value ([1]; 75 mg/kg IP) was 1.7-1.9 times. The “Effect on tumor growth (tumor volume)” value ([1]; 75 mg/kg PO vs same dose IP, first 14 days of treatment) was “inhibited tumor growth slightly more than intraperitoneal administration”, the “Effect on tumor growth (tumor volume)” value ([1]; 75 mg/kg PO, TIW, Day 36) was “tumor inhibition was observed” and the “Mean tumor volume as % of mean tumor volume in control mice receiving vehicle alone” value ([1]; 75 mg/kg PO, TIW) was “about 20%”. The “Mean tumor volume on Day 117 relative to the same mice at Day 1” value ([1]; 75 mg/kg PO) was 1.7-1.9 times, the “Effect on tumor growth (tumor volume)” value ([1]; 100 mg/kg PO, TIW, 89 days) was “tumor regressive” and the “Effect on tumor growth (tumor volume)” value ([1]; 100 mg/kg PO, TIW, Day 36) was “Tumor inhibition was also observed”. For the same compound, the “Mean tumor volume as % of mean tumor volume in mice receiving 75 mg/kg orally or intraperitoneally” value ([1]; 100 mg/kg PO, TIW) was “about 50%”, the “Mean tumor volume as % of mean tumor volume in the same mice at day 1” value ([1]; 100 mg/kg PO, after treatment stopped Day 103, study to Day 117) was “about 63%” and the “Effect on tumor growth (tumor volume)” value ([1]; 125 mg/kg PO, TIW (dosing holiday Day 29), 36 day period) was “caused tumor regression”. For the same compound, the “Mean tumor volume as % of mean tumor volume in mice receiving 75 mg/kg orally or intraperitoneally” value ([1]; 125 mg/kg PO, TIW with dosing holidays, dosing ended Day 78) was “about 50%”, the “Effect on tumor growth (tumor volume)” value ([1]; 125 mg/kg PO, TIW with dosing holidays, 89 days) was “tumor regressive” and the “Mean tumor volume as % of mean tumor volume in the same mice at day 1” value ([1]; 125 mg/kg PO, after treatment stopped Day 78, study to Day 117) was ~70%. For the same compound, the “Effect on tumor growth (tumor volume)” value ([1]; Group 2: 75 mg/kg IP in PBS, TIW, Study Days 1-8) was “did not inhibit tumor growth”, the “Effect on tumor growth (tumor volume)” value ([1]; Group 3: 75 mg/kg PO in 0.5% MC, TIW, Day 8, compared with Group 2) was “tumor growth was reduced” and the “Effect on tumor growth (tumor volume)” value ([1]; Group 4: 100 mg/kg PO, TIW, Days 1-8, compared to Group 1) was “Inhibition of tumor growth”. For the same compound, the “Effect on tumor growth (tumor volume)” value ([1]; Group 5: 125 mg/kg PO, TIW, Days 1-8) was “greatest suppression of tumor growth”, the “Effect on tumor growth (tumor volume)” value ([1]; Group 6: 150 mg/kg PO, TIW, Days 1-8) was “greatest suppression of tumor growth” and the “AUC % Extrap” value [2, 6] was 5.00 ± 4.92 %. For the same compound, the Cl_F [2, 6] was 6.14 ± 2.32 L/h/kg, the Vz_F [2, 6] was 15.12 ± 3.53 L/kg and the “AUC % Extrap” value [2, 7] was 1.42 ± 0.79%. The Cl_F [2, 7] was 6.63 ± 2.82 L/h/kg, the Vz_F [2, 7] was 33.74 ± 16.37 L/kg and the “AUC % Extrap” value [2, 8] was 0.47^a %. The Cl_F [2, 8] was 4.17^a L/hr/kg, the Vz_F [2, 8] was 17.51^a L/kg and the “AUC % Extrap” value [2, 9] was 6.76 ± 5.82 %. The “Cl_F” value [2, 9] was 22.85 ± 5.76 L/h/kg, the “Vz_F” value [2, 9] was 139.42 ± 13.22 L/kg and the “AUC % Extrap” value [2, 10] was 0.69 ± 0.34 %. The “Vz_F” value [2, 10] was 27.15 ± 11.86 L/kg, the “% AUC0-last test vs reference” value ([2]; Group 5 (24 mg/kg 2HCl ORA-plus) vs Group 6 (48 mg/kg 2HCl ORA-plus)) was 53.01% and the “% AUC0-last test vs reference” value ([2]; Group 5 (24 mg/kg 2HCl ORA-plus) vs Group 12 (24 mg/kg 2HCl SyrSpend)) was 84.12%. For the same compound, the “% AUC0-last test vs reference” value ([2]; Group 6 (48 mg/kg 2HCl ORA-plus) vs Group 13 (48 mg/kg 2HCl SyrSpend)) was 298.14%, the “% AUC0-last test vs reference” value ([2]; Group 6 (48 mg/kg 2HCl ORA-plus) vs Group 14 (60 mg/kg 2HCl SyrSpend)) was 62.79% and the “% AUC0-last test vs reference” value ([2]; Group 12 (24 mg/kg 2HCl SyrSpend) vs Group 13 (48 mg/kg 2HCl SyrSpend)) was 187.87%. For the same compound, the “% AUC0-last test vs reference” value ([2]; Group 12 (24 mg/kg 2HCl SyrSpend) vs Group 14 (60 mg/kg 2HCl SyrSpend)) was 39.57%, the “% AUC0-last test vs reference” value ([2]; Group 13 (48 mg/kg 2HCl SyrSpend) vs Group 14 (60 mg/kg 2HCl SyrSpend)) was 21.06% and the AUC(0-t) [2, 11] was 4200 ± 1120 ng·h/mL. For the same compound, the Cmax [2, 11] was 1070 ± 221 ng/mL, the Tmax [2, 11] was 2.4 ± 0.89 h and the AUC(0-inf) [2, 12] was 4250 ± 1230 ng·h/mL. The half-life [2, 12] was 1.8 ± 0.47 h, the AUC(0-t) [2, 13] was 5000 ± 1260 ng·h/mL and the Cmax [2, 13] was 1030 ± 151 ng/mL. The Tmax [2, 13] was 3.2 ± 1.1 h, the AUC(0-inf) [2, 14] was 5750 ng·h/mL and the half-life [2, 14] was 2.91 h. It also gave an AUC(0-inf) [2, 15] of 8040 ± 2410 ng·h/mL, an AUC(0-t) [2, 15] of 7930 ± 2380 ng·h/mL and a Cmax [2, 15] of 1120 ± 429 ng/mL. The Tmax [2, 15] was 2.8 ± 1.1 h, the half-life [2, 15] was 3.5 ± 0.53 h and the AUC(0-t) [2, 16] was 2660 ± 946 ng·h/mL. It also gave a Cmax [2, 16] of 1990 ± 787 ng/mL, a Tmax [2, 16] of 0.7 ± 0.27 h and an AUC(0-inf) [2, 17] of 2170 ± 548 ng·h/mL. It also gave a half-life [2, 17] of 4.42 ± 1.52 h, an AUC(0-t) [2, 18] of 12600 ± 5100 ng·h/mL and a Cmax [2, 18] of 1710 ± 314 ng/mL. The Tmax [2, 18] was 2.4 ± 2.07 h, the AUC(0-inf) [2, 19] was 11500 ± 4440 ng·h/mL and the half-life [2, 19] was 3.2 ± 0.4 h. The “Time point up to which all animals had quantifiable plasma levels” value ([2]; single oral dose, ORA-Plus or SyrSpend, data not shown) was ≥ 8 h, the solubility ([3]; 50% Flavor Sweet SF in water, aqueous with cosolvent or surfactant or cyclodextrin, API in 50% Flavor Sweet SF/H2O, read-out: Solubility testing result: Precipitate at) was < 5000 µg/mL and the solubility ([3]; 50% Versa Free in water, aqueous with cosolvent or surfactant or cyclodextrin, API in 50% Versa Free/H2O, read-out: Solubility testing result: Precipitate at) was < 5000 µg/mL. The solubility ([3]; Flavor Sweet (sugar free) vehicle, aqueous with cosolvent or surfactant or cyclodextrin, API in Flavor Sweet (sugar free), read-out: Solubility testing result: Precipitate at) was < 5000 µg/mL, the “Compatibility with drinking solution vehicle” value ([3]; Orasweet Sugar Free formulations (contain xanthan gum)) was “incompatibility” and the solubility ([3]; Versa Free vehicle, aqueous with cosolvent or surfactant or cyclodextrin, API in Versa Free, read-out: Solubility testing result: Precipitate at) was < 5000 µg/mL. For the same compound, the solubility ([3]; glycerin in 50% water, aqueous with cosolvent or surfactant or cyclodextrin, read-out: Ingredient solubility testing) was > 10000 µg/mL, the solubility ([3]; glycerin, organic solvent or mixture, read-out: Ingredient solubility testing) was > 6000 µg/mL and the MTD [4] was 24 mg/kg. It also gave an MTD at 103 days [5] of 75 mg/kg.
